US20250145609A1, “3-SUBSTITUTED PYRIDAZINE COMPOUNDS AS SMARCA2 AND/OR SMARCA4 DEGRADERS” (Aurigene Oncology Limited, priority 2022, published 2025)

How the values were obtained:
Type in all cases: cell-based
VCaP cells = assay: Anti proliferative activity in VCaP cell line by CellTiter Glo assay; details: Homo sapiens, VCaP, 192 h, 8 days incubation, CellTiter Glo luminescence
Procedure: Example-P1: Determination of Anti Proliferative Activity of Compounds in Cell Lines VCaP by Cell Titer Glo©(Promega) Assay
VCaP (ATCC CRL-2876) cells were seeded in 96 well plate flat black clear bottom plates (Corning, Cat. No 3904) using complete DMEM Medium. Next day, compounds listed in the present invention were added to cells from 10 mM stocks made in DMSO (Sigma Cat no. D2650). Each concentration of compound was tested in triplicate with DMSO concentration at a final percentage not exceeding 0.3 in the cells. After the incubation of VCaP cells with compound for 8 days assay was terminated using 50 μl of CellTiter Glo© reagent (Promega, Cat. no G7572). CellTiter-Glo® Luminescent reagent determines the number of viable cells based on quantitation of ATP present which is an indicator of cell number and metabolic activity. Luminescence readings were taken in Victor-3 instrument. Percent inhibition of proliferation was calculated using formula, % inhibition=100−(luminescence value of test/luminescence value of DMSO control)*100. DMSO control (0%)=Cells in complete media with DMSO; blank=Media alone containing DMSO. EC50 was calculated using graph pad prism software.
Herein the group “A” refers to EC50 values lower than l0 nM, group “B” refers to EC50 values between l0 nM-100 nM (both inclusive) and group “C” refers to EC50 values greater than 100 nM.

SMARCA4 = biological target: T1, SMARCA4 (Homo sapiens, UniProt P51532); assay: SMARCA4 degradation in VCaP cells by Western blot; details: at 100 nM; for Percent SMARCA4 degradation at 0.1 µM: VCaP, 16 h; for Percent degradation SMARCA4: 16 hours
T1 construct: endogenous in cells; host or cells: VCaP (ATCC CRL-2876)
T1 sequence (P51532 whole entry): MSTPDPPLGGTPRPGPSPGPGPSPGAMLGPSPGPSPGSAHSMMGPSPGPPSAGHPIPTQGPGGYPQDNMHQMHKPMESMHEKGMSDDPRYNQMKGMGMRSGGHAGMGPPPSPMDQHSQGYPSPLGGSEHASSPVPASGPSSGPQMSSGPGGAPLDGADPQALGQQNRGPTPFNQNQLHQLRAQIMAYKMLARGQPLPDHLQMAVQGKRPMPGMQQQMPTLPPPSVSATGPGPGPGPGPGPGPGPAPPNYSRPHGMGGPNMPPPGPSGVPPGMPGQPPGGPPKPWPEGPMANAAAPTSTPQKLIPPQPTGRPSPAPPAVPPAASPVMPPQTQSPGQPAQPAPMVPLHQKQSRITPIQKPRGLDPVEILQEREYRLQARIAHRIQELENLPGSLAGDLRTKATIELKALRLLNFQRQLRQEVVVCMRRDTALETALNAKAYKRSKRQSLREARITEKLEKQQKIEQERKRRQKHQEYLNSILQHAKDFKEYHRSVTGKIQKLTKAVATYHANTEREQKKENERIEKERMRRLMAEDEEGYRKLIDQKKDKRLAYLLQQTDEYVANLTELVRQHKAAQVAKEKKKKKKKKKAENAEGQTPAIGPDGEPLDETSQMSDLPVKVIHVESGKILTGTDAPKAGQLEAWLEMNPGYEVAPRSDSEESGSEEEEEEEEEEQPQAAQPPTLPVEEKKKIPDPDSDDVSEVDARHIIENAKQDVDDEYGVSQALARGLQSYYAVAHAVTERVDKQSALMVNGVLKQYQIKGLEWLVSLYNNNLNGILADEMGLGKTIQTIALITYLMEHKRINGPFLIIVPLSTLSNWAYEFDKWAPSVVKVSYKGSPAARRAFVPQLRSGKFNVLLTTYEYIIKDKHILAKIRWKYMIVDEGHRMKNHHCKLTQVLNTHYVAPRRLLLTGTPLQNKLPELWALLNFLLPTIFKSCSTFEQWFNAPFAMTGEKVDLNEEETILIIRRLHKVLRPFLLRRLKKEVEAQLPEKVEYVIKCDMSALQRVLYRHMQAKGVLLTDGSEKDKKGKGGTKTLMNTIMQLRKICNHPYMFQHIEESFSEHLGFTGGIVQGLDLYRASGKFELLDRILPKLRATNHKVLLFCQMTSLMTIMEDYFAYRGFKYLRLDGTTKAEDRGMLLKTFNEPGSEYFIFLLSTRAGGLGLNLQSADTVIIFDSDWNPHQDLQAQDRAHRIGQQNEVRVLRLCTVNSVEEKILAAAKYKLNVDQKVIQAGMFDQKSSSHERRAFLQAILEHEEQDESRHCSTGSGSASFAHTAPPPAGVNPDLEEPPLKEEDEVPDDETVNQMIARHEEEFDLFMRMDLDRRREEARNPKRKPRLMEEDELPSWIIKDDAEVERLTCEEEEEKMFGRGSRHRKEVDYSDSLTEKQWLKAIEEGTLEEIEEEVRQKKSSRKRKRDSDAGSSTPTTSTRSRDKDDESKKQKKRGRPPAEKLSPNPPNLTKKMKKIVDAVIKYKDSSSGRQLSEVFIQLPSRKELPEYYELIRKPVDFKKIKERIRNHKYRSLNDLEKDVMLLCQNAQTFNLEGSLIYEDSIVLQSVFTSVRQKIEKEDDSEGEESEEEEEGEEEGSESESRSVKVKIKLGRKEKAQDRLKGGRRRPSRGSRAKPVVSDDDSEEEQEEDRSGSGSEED
Procedure: (§1) Example-P2: Determination of SMARCA2 and SMARCA4 Degradation in VCaP Cells by Western Blot
(§2) VCaP (ATCC CRL-2876) was plated in 6 well plates using complete Dulbecco's Modified Eagle's Medium. On the third day, compounds of present invention were added to cells from 10 mM stocks made in DMSO (Sigma Cat no. D2650). Each compound was tested at 100 nM concentration with DMSO not exceeding final percentage of 0.3 in the cells. Cells were incubated with the compound for 16 hours followed by harvesting with 1×RIPA lysis buffer (Thermo Fischer, catalogue number #89900) containing protease inhibitor cocktail (Sigma catalogue number #P-8340). Equal amount of protein was loaded on SDS PAGE gel for electrophoresis. Western blot was carried out for detection of either SMARCA2 (Cell signalling technologies, catalogue number #11966) or SMARCA4 antibody (Cell signalling technologies, catalogue number #52251). Beta-Tubulin antibody (Cell signalling technologies, catalogue number #86298) was used as loading control. Percentage of SMARCA2 or SMARCA4 degradation was calculated by using formula: […]

SMARCA2 = biological target: T2, SMARCA2 (Homo sapiens, UniProt P51531); assay: SMARCA2 degradation in VCaP cells by Western blot; details: at 100 nM, 16 hours
T2 construct: endogenous in cells; host or cells: VCaP (ATCC CRL-2876)
T2 sequence (P51531 whole entry): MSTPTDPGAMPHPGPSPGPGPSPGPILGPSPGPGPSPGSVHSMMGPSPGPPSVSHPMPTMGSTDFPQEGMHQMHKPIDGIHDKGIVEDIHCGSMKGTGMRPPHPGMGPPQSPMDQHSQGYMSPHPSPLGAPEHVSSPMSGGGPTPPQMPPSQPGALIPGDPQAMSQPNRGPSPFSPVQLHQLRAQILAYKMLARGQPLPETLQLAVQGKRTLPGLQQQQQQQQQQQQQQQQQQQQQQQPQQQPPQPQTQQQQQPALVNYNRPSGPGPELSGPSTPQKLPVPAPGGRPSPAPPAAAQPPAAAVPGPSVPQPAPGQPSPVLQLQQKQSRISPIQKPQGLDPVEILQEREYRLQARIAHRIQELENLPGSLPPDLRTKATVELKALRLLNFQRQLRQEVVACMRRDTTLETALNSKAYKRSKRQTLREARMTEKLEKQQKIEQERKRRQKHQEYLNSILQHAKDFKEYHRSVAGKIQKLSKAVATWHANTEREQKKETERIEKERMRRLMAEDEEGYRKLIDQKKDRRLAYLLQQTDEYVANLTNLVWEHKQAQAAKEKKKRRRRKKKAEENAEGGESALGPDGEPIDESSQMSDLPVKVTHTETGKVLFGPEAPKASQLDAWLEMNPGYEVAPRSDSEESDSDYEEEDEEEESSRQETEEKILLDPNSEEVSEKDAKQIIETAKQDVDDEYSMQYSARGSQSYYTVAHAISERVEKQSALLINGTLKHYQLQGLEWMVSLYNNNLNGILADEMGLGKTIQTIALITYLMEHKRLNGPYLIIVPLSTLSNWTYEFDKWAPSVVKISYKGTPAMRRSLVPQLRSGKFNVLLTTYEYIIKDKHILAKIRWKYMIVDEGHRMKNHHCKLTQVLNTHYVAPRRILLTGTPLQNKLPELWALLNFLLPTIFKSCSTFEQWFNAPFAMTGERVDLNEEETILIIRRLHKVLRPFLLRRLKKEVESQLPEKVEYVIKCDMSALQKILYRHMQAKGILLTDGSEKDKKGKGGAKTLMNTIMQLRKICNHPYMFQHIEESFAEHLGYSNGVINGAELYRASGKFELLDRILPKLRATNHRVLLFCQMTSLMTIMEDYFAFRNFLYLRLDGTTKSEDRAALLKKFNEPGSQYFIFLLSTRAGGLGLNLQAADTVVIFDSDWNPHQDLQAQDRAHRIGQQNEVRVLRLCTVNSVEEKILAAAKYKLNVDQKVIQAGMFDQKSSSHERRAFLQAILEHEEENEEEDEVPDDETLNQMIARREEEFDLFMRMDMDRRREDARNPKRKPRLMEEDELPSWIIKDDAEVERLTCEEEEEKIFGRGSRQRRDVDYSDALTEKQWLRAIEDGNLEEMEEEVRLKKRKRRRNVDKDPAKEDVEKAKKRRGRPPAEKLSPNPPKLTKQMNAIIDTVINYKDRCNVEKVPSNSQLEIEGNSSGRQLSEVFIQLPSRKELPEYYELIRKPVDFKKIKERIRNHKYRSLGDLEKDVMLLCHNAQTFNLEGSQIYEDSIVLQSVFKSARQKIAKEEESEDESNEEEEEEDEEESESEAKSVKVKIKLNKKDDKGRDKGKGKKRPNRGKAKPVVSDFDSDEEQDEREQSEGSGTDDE
Procedure: as §1, §2

| Structure (SMILES) | EC50 (VCaP cells) | Percent SMARCA4 degradation at 0.1 µM (SMARCA4) | Percent degradation SMARCA2 (SMARCA2) | Percent degradation SMARCA4 (SMARCA4) |
| --- | --- | --- | --- | --- |
| Cc1ncsc1-c1ccc([C@H](C)NC(=O)[C@@H]2C[C@@H](O)CN2C(=O)[C@@H](NC(=O)CN2CCC(O)(c3ccc(-c4cc(-c5ccccc5O)nnc4N)cc3)CC2)C(C)(C)C)cc1 [Compound 48, (2S,4R)-1-((S)-2-(2-(4-(4-(3-amino-6-(2-hydroxyphenyl)pyridazin-4-yl)phenyl)-4-hydroxypiperidin-1-yl)acetamido)-3,3-dimethylbutanoyl)-4-hydroxy-N-((S)-1-(4-(4-methylthiazol-5-yl)phenyl)ethyl)pyrrolidine-2-carboxamide] | 10 to 100 nM | 20% | 97% | – |
| Cc1ncsc1-c1ccc([C@H](C)NC(=O)[C@@H]2C[C@@H](O)CN2C(=O)[C@@H](NC(=O)CN2CCN(c3ccc(-c4cc(-c5ccccc5O)nnc4N)cn3)CC2)C(C)(C)C)cc1 [Compound 25, (2S,4R)-1-((S)-2-(2-(4-(5-(3-amino-6-(2-hydroxyphenyl)pyridazin-4-yl)pyridin-2-yl)piperazin-1-yl)acetamido)-3,3-dimethylbutanoyl)-4-hydroxy-N—((S)-1-(4-(4-methylthiazol-5-yl)phenyl)ethyl)pyrrolidine-2-carboxamide] | < 10 nM | 92% | 97% | – |
| Cc1ncsc1-c1ccc([C@H](C)NC(=O)[C@@H]2C[C@@H](O)CN2C(=O)[C@@H](NC(=O)CC2CCN(c3ccc(-c4cc(-c5ccccc5O)nnc4N)cc3)CC2)C(C)(C)C)cc1 [Compound 38, (2S,4R)-1-((S)-2-(2-(1-(4-(3-amino-6-(2-hydroxyphenyl)pyridazin-4-yl)phenyl)piperidin-4-yl)acetamido)-3,3-dimethylbutanoyl)-4-hydroxy-N-((S)-1-(4-(4-methylthiazol-5-yl)phenyl)ethyl)pyrrolidine-2-carboxamide] | 10 to 100 nM | 91% | 100% | – |
| Cc1ncsc1-c1ccc([C@H](C)NC(=O)[C@@H]2C[C@@H](O)CN2C(=O)[C@@H](NC(=O)CCCCOc2ccc(-c3cc(-c4ccccc4O)nnc3N)cc2)C(C)(C)C)cc1 [Compound 58, (2S,4R)-1-((S)-2-(5-(4-(3-amino-6-(2-hydroxyphenyl)pyridazin-4-yl)phenoxy)pentanamido)-3,3-dimethylbutanoyl)-4-hydroxy-N—((S)-1-(4-(4-methylthiazol-5-yl)phenyl)ethyl)pyrrolidine-2-carboxamide] | 10 to 100 nM | 90% | 99% | – |
| Cc1ncsc1-c1ccc(CNC(=O)[C@@H]2C[C@@H](O)CN2C(=O)[C@@H](NC(=O)CN2CCC(c3ccc(-c4cc(-c5ccccc5O)nnc4N)cc3)CC2)C(C)(C)C)cc1 [Compound 30, (2S,4R)-1-((S)-2-(2-(4-(4-(3-amino-6-(2-hydroxyphenyl)pyridazin-4-yl)phenyl)piperidin-1-yl)acetamido)-3,3-dimethylbutanoyl)-4-hydroxy-N-(4-(4-methylthiazol-5-yl)benzyl)pyrrolidine-2-carboxamide] | 10 to 100 nM | 63% | 92% | – |
| Cc1ncsc1-c1ccc([C@H](C)NC(=O)[C@@H]2C[C@@H](O)CN2C(=O)[C@@H](NC(=O)CN2CCN(c3ccc(-c4cc(-c5ccccc5O)nnc4N)cc3)CC2)C(C)(C)C)cc1 [Compound 12, (2S,4R)-1-((S)-2-(2-(4-(4-(3-amino-6-(2-hydroxyphenyl)pyridazin-4-yl)phenyl)piperazin-1-yl)acetamido)-3,3-dimethylbutanoyl)-4-hydroxy-N—((S)-1-(4-(4-methylthiazol-5-yl)phenyl)ethyl)pyrrolidine-2-carboxamide] | < 10 nM | 54% | 98% | – |
| Cc1ncsc1-c1ccc([C@H](C)NC(=O)[C@@H]2C[C@@H](O)CN2C(=O)[C@@H](NC(=O)CC2CCC(c3ccc(-c4cc(-c5ccccc5O)nnc4N)cc3)CC2)C(C)(C)C)cc1 (mixture of isomers) [Compound 43, (2S,4R)-1-((S)-2-(2-(4-(4-(3-amino-6-(2-hydroxyphenyl)pyridazin-4-yl)phenyl)cyclohexyl)acetamido)-3,3-dimethylbutanoyl)-4-hydroxy-N-((S)-1-(4-(4-methylthiazol-5-yl)phenyl)ethyl)pyrrolidine-2-carboxamide] | < 10 nM | 86% | 97% | – |
| Cc1ncsc1-c1ccc([C@H](C)NC(=O)[C@@H]2C[C@@H](O)CN2C(=O)[C@@H](NC(=O)C2CCC(c3ccc(-c4cc(-c5ccccc5O)nnc4N)cc3)CC2)C(C)(C)C)cc1 (single isomer, unassigned) [Compound 42] | < 10 nM | – | 99% | 94% |
| Cc1ncsc1-c1ccc([C@H](C)NC(=O)[C@@H]2C[C@@H](O)CN2C(=O)[C@@H](NC(=O)CN2CCC(Oc3ccc(-c4cc(-c5ccccc5O)nnc4N)cc3)CC2)C(C)(C)C)cc1 [Compound 53, (2S,4R)-1-((S)-2-(2-(4-(4-(3-amino-6-(2-hydroxyphenyl)pyridazin-4-yl)phenoxy)piperidin-1-yl)acetamido)-3,3-dimethylbutanoyl)-4-hydroxy-N-((S)-1-(4-(4-methylthiazol-5-yl)phenyl)ethyl)pyrrolidine-2-carboxamide] | < 10 nM | 89% | 98% | – |
| Cc1ncsc1-c1ccc([C@H](C)NC(=O)[C@@H]2C[C@@H](O)CN2C(=O)[C@@H](NC(=O)CN2CC(c3ccc(-c4cc(-c5ccccc5O)nnc4N)cc3)C2)C(C)(C)C)cc1 [Compound 52, (2S,4R)-1-((S)-2-(2-(3-(4-(3-amino-6-(2-hydroxyphenyl)pyridazin-4-yl)phenyl)azetidin-1-yl)acetamido)-3,3-dimethylbutanoyl)-4-hydroxy-N-((S)-1-(4-(4-methylthiazol-5-yl)phenyl)ethyl)pyrrolidine-2-carboxamide] | > 100 nM | 70% | 97% | – |
| Cc1ncsc1-c1ccc([C@H](C)NC(=O)[C@@H]2C[C@@H](O)CN2C(=O)[C@@H](NC(=O)C2CCC(c3ccc(-c4cc(-c5ccccc5O)nnc4N)cc3)CC2)C(C)(C)C)cc1 (mixture of isomers) [Compound 40, (2S,4R)-1-((S)-2-(4-(4-(3-amino-6-(2-hydroxyphenyl)pyridazin-4-yl)phenyl)cyclohexane-1-carboxamido)-3,3-dimethylbutanoyl)-4-hydroxy-N-((S)-1-(4-(4-methylthiazol-5-yl)phenyl)ethyl)pyrrolidine-2-carboxamide] | < 10 nM | 45% | 97% | – |
| Cc1ncsc1-c1ccc([C@H](C)NC(=O)[C@@H]2C[C@@H](O)CN2C(=O)[C@@H](NC(=O)CN2CCN(c3ccc(-c4cc(-c5ccccc5O)nnc4N)cc3)C(=O)C2)C(C)(C)C)cc1 [Compound 39, (2S,4R)-1-((S)-2-(2-(4-(4-(3-amino-6-(2-hydroxyphenyl)pyridazin-4-yl)phenyl)-3-oxopiperazin-1-yl)acetamido)-3,3-dimethylbutanoyl)-4-hydroxy-N-((S)-1-(4-(4-methylthiazol-5-yl)phenyl)ethyl)pyrrolidine-2-carboxamide] | > 100 nM | 0% | 78% | – |
| Cc1ncsc1-c1ccc([C@H](C)NC(=O)[C@@H]2C[C@@H](O)CN2C(=O)[C@@H](NC(=O)CN2CCN(c3ccc(-c4cc(-c5ccccc5O)nnc4N)c(F)c3)CC2)C(C)(C)C)cc1 [Compound 28, (2S,4R)-1-((S)-2-(2-(4-(4-(3-amino-6-(2-hydroxyphenyl)pyridazin-4-yl)-3-fluorophenyl)piperazin-1-yl)acetamido)-3,3-dimethylbutanoyl)-4-hydroxy-N—((S)-1-(4-(4-methylthiazol-5-yl)phenyl)ethyl)pyrrolidine-2-carboxamide] | 10 to 100 nM | 67% | 96% | – |
| Cc1ncsc1-c1ccc([C@H](C)NC(=O)[C@@H]2C[C@@H](O)CN2C(=O)[C@@H](NC(=O)C(C)N2CCC(c3ccc(-c4cc(-c5ccccc5O)nnc4N)cc3)CC2)C(C)(C)C)cc1 (single isomer, unassigned) [Compound 34] | > 100 nM | – | 91% | 0% |
